Assay results as given in paper PMC7111485 (Bioorganic & Medicinal Chemistry, 2016).

Tests used:
[1] = target: Bovine spleen cathepsin B (Bos taurus, UniProt P07688); format: biochemical
HeLa cells = conditions: for cell death ratio: human

| Structure (SMILES) | cell death ratio (HeLa cells) | other results |
| --- | --- | --- |
| O=C(/C=C/c1ccccc1)N[C@H](COC(=O)c1ccccc1)C(=O)NC1CCCCC1 (single isomer, unassigned) [ent-3] | – | Inhibition (%) [1]: no inhibition; cytotoxicity (in words) (HeLa cells): no cytotoxicity |
| COc1ccccc1/C=C/C(=O)N[C@@H](COC(=O)c1ccccc1)C(=O)NC1CCCCC1 [7f, (S)-N-(E)-2′-Methoxy-3-phenylprop-2-enoicserine(benzoyl)cyclohexylamide] | – | inhibitory activity relative to 3 (times) [1]: about 10 times; inhibitory mechanism (Lineweaver–Burk plot) [1]: competitive inhibition |
| COc1cc(/C=C/C(=O)N[C@@H](COC(=O)c2ccccc2)C(=O)NC2CCCCC2)cc(OC)c1 [7h, (S)-N-(E)-3′,5′-Dimethoxy-3-phenylprop-2-enoicserine(benzoyl)cyclohexylamide] | less than 20% | – |
| COc1cccc(/C=C/C(=O)N[C@@H](COC(=O)c2ccccc2)C(=O)NC2CCCCC2)c1 [7i, (S)-N-(E)-3′-Methoxy-3-phenylprop-2-enoicserine(benzoyl)cyclohexylamide] | less than 20% | – |
| O=C(/C=C/c1ccc(OC(=O)c2ccccc2)cc1)N[C@@H](COC(=O)c1ccccc1)C(=O)NC1CCCCC1 [7j, (S)-N-(E)-4′-Benzoyloxy-3-phenylprop-2-enoicserine(benzoyl)cyclohexylamine] | less than 20% | – |
| COc1cc(/C=C/C(=O)N[C@@H](COC(=O)c2ccccc2)C(=O)NC2CCCCC2)cc(OC)c1OC [7k, (S)-N-(E)-3′,4′,5′-Trimethoxy-3-phenylprop-2-enoicserine(benzoyl)cyclohexylamide] | less than 20% | – |
| O=C(/C=C/c1ccccc1)N[C@@H](COC(=O)c1ccccc1)C(=O)NC1CCCCC1 [compound 3, (S)-N-Cinnamoyl serine(benzoyl)cyclohexylamide] | less than 20% | – |
| COc1cc(/C=C/C(=O)N[C@H](COC(=O)c2ccccc2)C(=O)NC2CCCCC2)cc(OC)c1OC [ent-7k] | – | cytotoxicity (in words) (HeLa cells): no cytotoxicity |
